Measured values reported in ChEMBL document CHEMBL2074373, “Effect of the Mdr1a P-glycoprotein gene disruption on the tissue distribution of SDZ PSC 833, a multidrug resistance-reversing agent, in mice” (J Pharmacol Exp Ther, 1998).

Molecular target: ATP-dependent translocase ABCB1 (Mus musculus, UniProt P21447)
Experiment: TP_TRANSPORTER: increase in brain concentration in mdr1a(-/-) mouse
Assay type: functional, organism-based
Conditions: in vivo

Sequence of ATP-dependent translocase ABCB1 (P21447 whole entry): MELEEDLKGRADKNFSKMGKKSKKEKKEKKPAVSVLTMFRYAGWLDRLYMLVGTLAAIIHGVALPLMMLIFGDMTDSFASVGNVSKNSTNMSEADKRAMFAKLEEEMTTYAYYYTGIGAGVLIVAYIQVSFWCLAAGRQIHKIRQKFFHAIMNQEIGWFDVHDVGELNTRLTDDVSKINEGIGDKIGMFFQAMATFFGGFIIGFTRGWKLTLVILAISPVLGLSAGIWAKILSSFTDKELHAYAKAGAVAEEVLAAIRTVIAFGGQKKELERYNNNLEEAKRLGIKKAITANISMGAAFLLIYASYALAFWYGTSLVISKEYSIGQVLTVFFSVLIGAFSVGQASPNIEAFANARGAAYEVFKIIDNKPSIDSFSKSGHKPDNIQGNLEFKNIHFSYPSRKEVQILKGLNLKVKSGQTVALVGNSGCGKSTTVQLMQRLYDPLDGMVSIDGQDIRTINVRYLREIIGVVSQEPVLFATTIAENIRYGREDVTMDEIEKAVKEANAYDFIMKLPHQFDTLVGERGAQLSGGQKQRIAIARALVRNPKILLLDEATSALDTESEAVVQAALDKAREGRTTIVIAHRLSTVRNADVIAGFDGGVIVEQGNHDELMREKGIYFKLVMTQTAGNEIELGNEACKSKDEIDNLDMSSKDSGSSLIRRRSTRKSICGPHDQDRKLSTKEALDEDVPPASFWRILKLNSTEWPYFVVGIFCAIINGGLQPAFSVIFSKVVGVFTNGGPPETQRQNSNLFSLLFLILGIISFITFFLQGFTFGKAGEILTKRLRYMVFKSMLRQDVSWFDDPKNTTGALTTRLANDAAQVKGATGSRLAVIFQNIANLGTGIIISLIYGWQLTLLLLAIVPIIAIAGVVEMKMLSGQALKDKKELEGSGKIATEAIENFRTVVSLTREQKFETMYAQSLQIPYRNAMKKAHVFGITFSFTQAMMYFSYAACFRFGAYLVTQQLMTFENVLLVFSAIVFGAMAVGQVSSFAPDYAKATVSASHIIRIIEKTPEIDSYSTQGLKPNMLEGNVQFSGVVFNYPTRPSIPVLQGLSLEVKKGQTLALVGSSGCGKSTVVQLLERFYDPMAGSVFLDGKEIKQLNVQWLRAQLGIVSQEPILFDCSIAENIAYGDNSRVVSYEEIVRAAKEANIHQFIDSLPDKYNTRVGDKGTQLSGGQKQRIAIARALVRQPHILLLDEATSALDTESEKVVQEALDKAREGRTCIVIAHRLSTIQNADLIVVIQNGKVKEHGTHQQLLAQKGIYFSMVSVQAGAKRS

C/C=C/C[C@@H](C)C(=O)[C@H]1C(=O)N[C@@H](C(C)C)C(=O)N(C)CC(=O)N(C)[C@@H](CC(C)C)C(=O)N[C@@H](C(C)C)C(=O)N(C)[C@@H](CC(C)C)C(=O)N[C@@H](C)C(=O)N[C@H](C)C(=O)N(C)[C@@H](CC(C)C)C(=O)N(C)[C@@H](CC(C)C)C(=O)N(C)[C@@H](C(C)C)C(=O)N1C [VALSPODAR]
Activity: substrate [+]
